Test results as given in patent publication US20220184099A1, “METHODS OF USING OBETICHOLIC ACID” (Intercept Pharmaceuticals, Inc., priority 2018, published 2022).

Assays:
[1] = Plasma PK of total OCA (AUC0-24 h), serial sampling on Day 1 and Day 28 of dosing; type: in vivo, human
Protocol: (§1) To evaluate safety, the PK and PD of OCA administered at 10 mg/day or 25 mg/day in subjects with compensated cirrhosis due to NASH was compared to healthy controls in a randomized, double blind, single center, Phase 3 study. Sixteen subjects with cirrhosis due to NASH and 8 healthy, age- and weight-matched, subjects were randomized in a 1:1 ratio to QD OCA 10 mg or OCA 25 mg for 28 days, according to FIG. 1 and Table 1. Extensive serial PK sampling over a 24-hour period was performed on Day 1 and Day 28 of dosing.

[2] = Liver biochemistry (ALT, AST, GGT, ALP, bilirubin) during 28 days of QD OCA; type: in vivo, human
Protocol: as §1

[3] = target: T1, FXR (Homo sapiens, UniProt Q96RI1); test: PD markers of FXR activation (C4, FGF-19) during 28 days of QD OCA; type: in vivo
T1 construct: FGF-19 released from gut enterocytes (in response to FXR agonist) into portal circulation down regulates endogenous bile acid synthesis in the liver; endogenous in cells; host or cells: human study subjects in vivo (gut enterocytes, liver)
T1 sequence (Q96RI1 1-486): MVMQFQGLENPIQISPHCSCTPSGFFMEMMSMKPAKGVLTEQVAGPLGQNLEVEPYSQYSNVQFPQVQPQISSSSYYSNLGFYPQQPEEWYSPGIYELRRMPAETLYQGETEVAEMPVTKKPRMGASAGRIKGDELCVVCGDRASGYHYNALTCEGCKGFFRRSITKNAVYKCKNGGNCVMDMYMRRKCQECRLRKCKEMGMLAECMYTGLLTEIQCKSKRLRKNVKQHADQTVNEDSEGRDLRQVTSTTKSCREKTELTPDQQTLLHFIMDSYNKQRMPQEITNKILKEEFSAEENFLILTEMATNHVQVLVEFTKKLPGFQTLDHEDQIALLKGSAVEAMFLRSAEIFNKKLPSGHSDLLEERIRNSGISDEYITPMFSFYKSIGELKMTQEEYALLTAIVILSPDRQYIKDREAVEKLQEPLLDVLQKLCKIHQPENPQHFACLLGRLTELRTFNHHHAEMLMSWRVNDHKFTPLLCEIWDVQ
Source text: In one aspect, obeticholic acid may mediate its action primarily via FXR agonism, wherein FGF-19 released from gut enterocytes (in response to FXR agonist) into portal circulation down regulates endogenous bile acid synthesis in the liver. The present disclosure comprehends a method of measuring FXR agonist activity by, for example, measuring release of FGF-19 into the bloodstream or circulation of a patient administered with OCA. Levels of FGF-19 may be measured by methods known in the art, such as those described herein.
In some embodiments, the plasma levels of FGF-19, a marker of FXR activation, are determined using a qualified method and a validated method using an enzyme-linked immunosorbent assay (ELISA) method. The plasma concentrations of FGF-19 may be quantitated at predose and after administration of dose.
In some examples, a monoclonal antibody specific for FGF-19 is pre-coated onto a microplate. Standards, quality controls and samples are pipetted into the wells and any FGF-19 present is bound by the immobilized antibody. After washing away any unbound substances, an enzyme-linked polyclonal antibody specific for FGF-19 is added to the wells. Following a wash to remove any unbound antibody-enzyme reagent, a substrate solution is added to the wells and color develops in the proportion to the amount of FGF-19 bound in the initial step. The color development is stopped and the intensity of the color is measured. The calibration range of the method is 15.625 pg/ml to 1000 pg/ml for FGF-19 using a 100 μl aliquot of standard curve, quality control and sample. In some embodiments, no minimum required dilution is used. In other embodiments, samples may be subjected to a 3× minimum required dilution.
To evaluate safety, the PK and PD of OCA administered at 10 mg/day or 25 mg/day in subjects with compensated cirrhosis due to NASH was compared to healthy controls in a randomized, double blind, single center, Phase 3 study. […]

[4] = Albumin, creatinine, platelets and INR levels in subjects of the clinical study; type: in vivo, human; details: for Albumin, % Change at Day 28 / Albumin, Day 28 / Creatinine, % Change at Day 28 / Creatinine, Day 28 / Platelets, % Change at Day 28 / Platelets, Day 28: median
Protocol: as §1

[5] = Adverse events, safety and tolerability of OCA 10 mg or 25 mg QD for 28 days; type: in vivo, human; details: for Total adverse events (AEs): both doses
Protocol: as §1

[6] = both dose groups, throughout the 28-day study

Plasma exposure of total OCA in subjects with cirrhosis due to NASH relative to healthy subjects ([1]; daily OCA 10 mg and 25 mg): higher
Hepatic exposure of OCA ([1]; despite increased systemic exposure, FIGS. 11A and 11B): remain nominal
PD effects ([3]; both doses of OCA): favorable PD effects
C4 ([3]; both dosing groups): suppression
FGF-19 ([3]; both dosing groups): activation
Albumin levels ([4]; 28 days): No changes
INR ([4]; 28 days): No changes
Platelet levels ([4]; 28 days): No changes
Albumin, % Change at Day 28 ([4]; Healthy, 10 mg OCA (n = 4)): 2.3%
Albumin, Day 28 ([4]; Healthy, 10 mg OCA (n = 4)): 4.5 g/dL
Creatinine, % Change at Day 28 ([4]; Healthy, 10 mg OCA (n = 4)): −1.6%
Creatinine, Day 28 ([4]; Healthy, 10 mg OCA (n = 4)): 0.96 mg/dL
Platelets, % Change at Day 28 ([4]; Healthy, 10 mg OCA (n = 4)): 0.4%
Platelets, Day 28 ([4]; Healthy, 10 mg OCA (n = 4)): 262.0 10^9/L
Albumin, % Change at Day 28 ([4]; Healthy, 25 mg OCA (n = 4)): −4.0%
Albumin, Day 28 ([4]; Healthy, 25 mg OCA (n = 4)): 4.0 g/dL
Creatinine, % Change at Day 28 ([4]; Healthy, 25 mg OCA (n = 4)): 8.3%
Creatinine, Day 28 ([4]; Healthy, 25 mg OCA (n = 4)): 0.78 mg/dL
Platelets, % Change at Day 28 ([4]; Healthy, 25 mg OCA (n = 4)): 4.0%
Platelets, Day 28 ([4]; Healthy, 25 mg OCA (n = 4)): 261.0 10^9/L
Albumin, % Change at Day 28 ([4]; NASH CP-A, 10 mg OCA (n = 8)): −3.9%
Albumin, Day 28 ([4]; NASH CP-A, 10 mg OCA (n = 8)): 4.0 g/dL
Creatinine, % Change at Day 28 ([4]; NASH CP-A, 10 mg OCA (n = 8)): 4.3%
Creatinine, Day 28 ([4]; NASH CP-A, 10 mg OCA (n = 8)): 0.88 mg/dL
Platelets, % Change at Day 28 ([4]; NASH CP-A, 10 mg OCA (n = 8)): −9.7%
Platelets, Day 28 ([4]; NASH CP-A, 10 mg OCA (n = 8)): 101.5 10^9/L
Albumin, % Change at Day 28 ([4]; NASH CP-A, 25 mg OCA (n = 8)): −6.5%
Albumin, Day 28 ([4]; NASH CP-A, 25 mg OCA (n = 8)): 4.0 g/dL
Creatinine, % Change at Day 28 ([4]; NASH CP-A, 25 mg OCA (n = 8)): 0.8%
Creatinine, Day 28 ([4]; NASH CP-A, 25 mg OCA (n = 8)): 0.87 mg/dL
Platelets, % Change at Day 28 ([4]; NASH CP-A, 25 mg OCA (n = 8)): −2.0%
Platelets, Day 28 ([4]; NASH CP-A, 25 mg OCA (n = 8)): 155.5 10^9/L
Compound: CC[C@H]1[C@@H](O)[C@@H]2[C@H](CC[C@]3(C)[C@@H]([C@H](C)CCC(=O)O)CC[C@@H]23)[C@@]2(C)CC[C@@H](O)C[C@@H]12 [OCA, 3α,7α-dihydroxy-6α-ethyl-5β-cholan-24-oic acid]
Bilirubin levels (direct and total) ([2]; 10 mg and 25 mg groups, 28 days): no apparent trend
ALP ([2]; OCA 25 mg group, mostly driven by subjects with elevated ALP at Baseline): moderate increase
ALT [2, 6]: improvements
AST [2, 6]: improvements
GGT [2, 6]: improvements
Subjects who discontinued treatment due to elevated bilirubin levels ([5]; NASH, OCA 25 mg, advanced disease with portal hypertension and history of hyperbilirubinemia, discontinued on Day 25): One
Liver-related adverse events reported ([5]; all subjects): one
Serious adverse events ([5]; all subjects): No serious adverse events were observed
Severity of all AEs ([5]; all subjects, no trend for liver related AEs): mild or moderate
Overall safety and tolerability ([5]; daily OCA at 10 mg and 25 mg): generally safe and well tolerated
Subjects experiencing adverse events ([5]; healthy subjects on 10 mg): 3 subjects
Subjects experiencing adverse events ([5]; healthy subjects on 25 mg): 2 subjects
Total adverse events (AEs) ([5]; healthy subjects): 5 AEs
Subjects experiencing adverse events ([5]; healthy subjects, both doses (of 8)): 5 subjects
Subjects experiencing adverse events ([5]; subjects with NASH on 10 mg): 2 subjects
Subjects experiencing adverse events ([5]; subjects with NASH on 25 mg): 4 subjects
Total adverse events (AEs) ([5]; subjects with NASH): 13 AEs
Subjects experiencing adverse events ([5]; subjects with NASH, both doses (of 16)): Six
Subjects reporting mild or moderate pruritus ([5]; subjects with NASH, no relationship to dose): Four
Time for bilirubin levels to return to normal after discontinuation of OCA ([5]; the one NASH subject on 25 mg who discontinued): 1 days
